This is an account of results in patent US20080234291A1, “Mitratapide Oral Solution” (priority 2004, published 2008).

In brackets after ≈: the same amount, converted by molar mass.

By solubility is commonly meant how much of the substance goes into solution per volume.

Data set [1] is described as follows: solubility of mitratapide in different pharmaceutical solvents. Type of data set: physicochemical. The settings on record: about 22° C.
Data set [2] is described as follows: solubility of mitratapide in water. Type of data set: physicochemical. The procedure:
Since mitratapide has a solubility of less than 0.5 μg/ml in water, which can be increased to 0.4 mg/ml at a pH of 1.2, the presence of a solubilizing agent is necessary for the preparation of aqueous solutions. Hydroxypropyl-β-cyclodextrin (HP-β-CD) is a suitable solubilizing agent with which mitratapide forms higher order water soluble complexes. In order to obtain an aqueous solution comprising mitratapide with a concentration of 5 mg/ml it is necessary to use HP-β-CD in an amount of 250 mg/ml and adjusting the pH to 4. Furthermore it is necessary to add an antimicrobial preservative to these aqueous HP-β-CD solutions to protect them against microbial spoilage during manufacture or use. The addition of benzoic acid, a well known antimicrobial preservative for acidic aqueous solutions having a pH ≦4.5, however caused a precipitation of mitratapide probably due to a competition between mitratapide and benzoic acid for inclusion into the HP-β-CD cavity. To compensate, the HP-β-CD concentration had to be increased from 250 mg/ml to 400 mg/ml to solubilize mitratapide at a concentration of 5 mg/ml. […]

For `CCC(C)n1ncn(-c2ccc(N3CCN(c4ccc(OCC5COC(CSc6nncn6C)(c6ccc(Cl)cc6)O5)cc4)CC3)cc2)c1=O` (stereo not drawn) [mitratapide, (−)-[2S-[2α,4α(S*)]]-4-[4-[4-[4-[[2-(4-chlorophenyl)-2-[[(4-methyl-4H-1,2,4-triazol-3-yl)thio]methy]-1,3-dioxolan-4-yl]methoxy]pheny]-1-piperazinyl]phenyl]-2,4-dihydro-2-(1-methylpropyl)-3H-1,2,4-triazol-3-one], the solubility in data set [1] (caprylic/capric/linoleic acid triglyceride (Miglyol 818), oil or lipid, caprylidcapridlinoleic acid triglyceride (Miglyol 818 ®)) is less than 5000 µg/mL; in data set [1] (oil or lipid, apricot Kernel oil PEG-6 complex (Labrafil 1944CS ®)), less than 5000 µg/mL; in data set [1] (oil or lipid, caprylic/capric acid triglyceride (Miglyol 812 ®)), less than 5000 µg/mL; in data set [1] (oil or lipid, caprylic/capric diester of propylene glycol), less than 5000 µg/mL; in data set [1] (oil or lipid, caprylic/capric/succinic acid triglyceride (Miglyol 829 ®)), less than 5000 µg/mL; in data set [1] (oil or lipid, caprylocaproyl-8 glyceride (Labrasol ®)), greater than 5000 µg/mL. Moreover, the solubility is less than 5000 µg/mL in data set [1] (oil or lipid, corn oil PEG-6 complex (Labrafil 2125CS ®)); less than 50 µg/mL in data set [1] (oil or lipid, sesame oil); greater than 5000 µg/mL in data set [1] (organic solvent or mixture, diethylene glycol monoethyl ether (Transcutol ®)); greater than 5000 µg/mL in data set [1] (organic solvent or mixture, dimethyl isosorbide (2,5-di-O-methyl-1,4:3,6-dianhydro D-glucitol)); greater than 5000 µg/mL in data set [1] (propylene glycol monolaurate (Lauroglycol), oil or lipid, Dropylene glycol monolaurate (Lauroglycol ®)); 400 µg/mL (≈ 0.558 mM) in data set [2] (water at pH 1.2, pH 1.2, simulated gastric fluid, pH of 1.2, read-out: solubility in water at pH 1.2). In addition, the solubility in data set [2] (water, read-out: solubility in water) was less than 0.5 µg/mL.
